From ChEMBL document CHEMBL1201862, “PubChem BioAssay data set” (2004)
Calls of active or inactive are those of the source.

Tests used:
[1] = molecular target: Arf-GAP with SH3 domain, ANK repeat and PH domain-containing protein 1 (Homo sapiens, UniProt Q9ULH1); format: functional;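 also: biochemical fluorescence polarization dose–response screen measuring inhibition of ASAP1; ASAP1 GAP domain stimulating GTP hydrolysis by truncated human ARF1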
[2] = Luminescence Cell-Based Dose Retest to Confirm Inhibitors of Cancer Stem Cells. [Related pubchem assays (depositor defined):AID2717, AID2721]; format: functional; conditions: Homo sapiens
[3] = molecular target: Beta-2 adrenergic receptor (Homo sapiens, UniProt P07550); experiment: ADRB2 activation measured by internalization – cell-based, FAP fluorogen, flow cytometry, cherry pick 1, dose response (AID 588763); format: functional
[4] = viability loss in HEK293T cells – cell-based, cherry-picks, cytotoxicity control for HIV Vif inhibitor project, dose response (AID 652208); format: functional
[5] = A549 cell cytotoxicity, dose response, cytotoxicity control, plate reader, cherry-pick, antagonist series (AID 743412); format: functional, cell-based
[6] = toxicity toward HepG2 liver cells – cell-based, plate reader, cherry-pick, antagonist series, cytotoxicity control, dose response (AID 743416); format: functional
[7] = blockers of bursicon-stimulated LGR2 cAMP reporter – cell-based, HEK293, CRE-luciferase reporter, cherry pick, set 2, dose response (AID 743343); format: functional;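 also: transfected cells were stimulated with diluted bursicon conditioned medium after compound addition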
[8] = blockade of melanocortin 4 receptor signaling – cell-based, plate reader, cherry pick, counter-screen for LGR2 antagonist project, dose response (AID 743444); format: functional;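 also: transfected HEK 293 cells stimulated with alpha-MSH peptide; potency of inhibitors of the alpha-MSH evoked signal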
[9] = viability loss in HEK293 cells – cell-based, plate reader, cherry-picked samples, cytotoxicity control, dose response (AID 743446); format: functional
[10] = molecular target: Botulinum neurotoxin type F (Clostridium botulinum, UniProt P30996); experiment: High-throughput multiplex microsphere dose response for inhibitors of toxin protease, specifically Botulinum neurotoxin light chain F protease, compounds from Cherry Pick 02.; format: functional; conditions: read-out: EC50_MICROM
Botulinum neurotoxin type F, sequence (P30996 1-436 limits assumed): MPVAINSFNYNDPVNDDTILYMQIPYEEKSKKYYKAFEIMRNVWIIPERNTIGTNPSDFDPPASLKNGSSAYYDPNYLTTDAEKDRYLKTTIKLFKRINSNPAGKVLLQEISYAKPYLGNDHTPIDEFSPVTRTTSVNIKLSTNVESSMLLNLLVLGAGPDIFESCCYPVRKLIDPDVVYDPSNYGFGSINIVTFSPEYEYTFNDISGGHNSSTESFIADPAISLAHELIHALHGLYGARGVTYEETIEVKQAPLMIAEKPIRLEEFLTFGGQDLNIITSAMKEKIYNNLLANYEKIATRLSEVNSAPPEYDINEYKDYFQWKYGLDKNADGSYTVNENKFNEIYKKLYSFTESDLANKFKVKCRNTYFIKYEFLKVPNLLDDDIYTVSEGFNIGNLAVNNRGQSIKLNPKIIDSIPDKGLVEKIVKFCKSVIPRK

Arf-GAP with SH3 domain, ANK repeat and PH domain-containing protein 1, sequence (Q9ULH1 whole entry, the tested form may be a part): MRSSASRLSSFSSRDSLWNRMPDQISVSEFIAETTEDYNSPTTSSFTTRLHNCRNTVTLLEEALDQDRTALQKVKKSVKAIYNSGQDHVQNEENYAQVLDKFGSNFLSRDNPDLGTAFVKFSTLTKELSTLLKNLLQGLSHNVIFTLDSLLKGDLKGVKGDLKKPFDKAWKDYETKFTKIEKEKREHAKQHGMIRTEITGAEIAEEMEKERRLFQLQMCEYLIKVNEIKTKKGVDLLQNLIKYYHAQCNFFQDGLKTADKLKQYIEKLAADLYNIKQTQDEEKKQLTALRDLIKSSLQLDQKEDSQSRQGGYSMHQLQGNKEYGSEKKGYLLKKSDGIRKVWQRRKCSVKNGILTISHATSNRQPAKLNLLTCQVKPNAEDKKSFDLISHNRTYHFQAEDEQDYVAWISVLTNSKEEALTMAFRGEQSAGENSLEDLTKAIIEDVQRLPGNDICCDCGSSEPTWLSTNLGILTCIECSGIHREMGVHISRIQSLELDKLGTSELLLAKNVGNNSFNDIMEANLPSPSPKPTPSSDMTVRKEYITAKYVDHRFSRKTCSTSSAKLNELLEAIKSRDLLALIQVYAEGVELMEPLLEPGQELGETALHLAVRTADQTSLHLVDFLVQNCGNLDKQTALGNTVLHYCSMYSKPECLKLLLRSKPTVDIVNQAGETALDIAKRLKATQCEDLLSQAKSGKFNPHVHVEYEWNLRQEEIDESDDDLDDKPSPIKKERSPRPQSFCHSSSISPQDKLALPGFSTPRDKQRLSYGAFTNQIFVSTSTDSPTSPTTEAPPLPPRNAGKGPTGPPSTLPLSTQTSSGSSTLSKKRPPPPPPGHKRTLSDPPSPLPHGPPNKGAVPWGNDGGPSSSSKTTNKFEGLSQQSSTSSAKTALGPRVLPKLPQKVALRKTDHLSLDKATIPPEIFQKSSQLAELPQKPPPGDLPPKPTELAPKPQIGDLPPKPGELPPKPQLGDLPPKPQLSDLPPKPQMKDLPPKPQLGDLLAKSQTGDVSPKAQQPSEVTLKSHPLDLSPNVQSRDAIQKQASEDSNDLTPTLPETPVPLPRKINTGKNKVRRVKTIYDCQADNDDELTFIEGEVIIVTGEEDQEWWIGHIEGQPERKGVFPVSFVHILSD
Beta-2 adrenergic receptor, sequence (P07550 whole entry): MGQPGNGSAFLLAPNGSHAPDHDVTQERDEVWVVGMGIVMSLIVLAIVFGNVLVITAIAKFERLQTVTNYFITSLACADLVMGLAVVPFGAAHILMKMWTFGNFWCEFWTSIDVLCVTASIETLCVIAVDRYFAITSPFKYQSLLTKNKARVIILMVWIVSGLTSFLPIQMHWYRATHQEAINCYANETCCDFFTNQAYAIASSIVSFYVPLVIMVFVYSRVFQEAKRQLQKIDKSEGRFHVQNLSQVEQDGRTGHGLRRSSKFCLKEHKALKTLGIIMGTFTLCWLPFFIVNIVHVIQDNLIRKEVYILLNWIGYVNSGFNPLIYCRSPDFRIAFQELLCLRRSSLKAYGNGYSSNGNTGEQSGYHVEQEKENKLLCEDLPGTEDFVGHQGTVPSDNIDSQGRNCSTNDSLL

## CC1=CC2=NC(=O)/C(=C\c3ccc(-c4ccc(Cl)cc4)o3)C(=N)N2O1
[1]
  IC50: 3.41 µM (active)

## Cn1nnnc1Sc1ncnc2scc(-c3ccc(Cl)cc3)c12
[2]
  AC50: 3.48 µM (active)
[3]
  EC50: 8.38 µM (active)
[4]
  AC50: 11.8 µM (active)
[5]
  AC50: 7.88 µM (active)
[6]
  AC50: 12.1 µM (active)
[7]
  AC50: 14.3 µM (active)
[8]
  AC50: 23.2 µM (active)
[9]
  AC50: 13.9 µM (active)

## COc1cccc(C(=O)OCC(=O)c2c[nH]c3ccccc23)c1O
[10]
  EC50: > 20 µM (inactive)
